# Where two headings read alike, the source gives them in different places. Where a SMILES comes first, the peptide text is derived from it.
# Assays:
# [1] = test system: fibrin-induced microglia activation; experiment: Image-based assay of fibrin-induced microglia activation (HTS and dose response); format: cell-based, rat; conditions: primary microglia HTS, fibrin stimulation; for inhibition at 10 µM: Rattus norvegicus, Microglia, read-out: Fibrin % inhibition
# [2] = test system: LPS-induced microglia activation; experiment: Image-based assay of LPS-induced microglia activation (HTS and dose response); format: cell-based, rat; conditions: for inhibition at 10 µM: Rattus norvegicus, Microglia, read-out: LPS % inhibition
# [3] = test system: fibrin- and LPS-induced microglia activation; experiment: cells; format: cell-based, rat
# [4] = test system: primary rat microglia
# [5] = test system: primary rat microglia; experiment: Cell toxicity (dead cells, size <150 μm2) in coated fibrin (cFib) assay; conditions: primary microglia HTS;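 note: share of dead cells sized under 150 µm2 at 10 µM in fibrin-stimulated microglia HTS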
# [6] = primary microglia HTS, LPS stimulation, compounds at 10 μM
# [7] = classification by fibrin and LPS inhibition, HTS at 10 μM
# [8] = fibrin assay, dead cells (size <150 μm2), compounds at 10 μM
# [9] = cell size >800 μm2 as marker of activation
# [10] = classification by fibrin and LPS inhibition in HTS
# [11] = fibrin stimulation, cell size <150 μm2 as marker of toxicity
# [12] = quadrant by fibrin and LPS inhibition, HTS at 10 μM
# [13] = fibrin assay, dead cells (size <150 μm2)
Compound,inhibition at 10 µM ([1]; compounds at 10 μM) [%],"inhibition at 10 µM [2, 6] [%]","Quadrant (FIG. 5b) [3, 7]",LPS % cell toxicity ([4]; rat) [%],"Fibrin % cell toxicity [5, 8] [%]","Quadrant (FIG. 5b) [3, 10]","Fibrin % cell toxicity [5, 11] [%]",other results
C[C@H](CCC(=O)O)[C@H]1CC[C@H]2[C@@H]3C(=O)C[C@@H]4CC(=O)CC[C@]4(C)[C@H]3CC(=O)[C@]12C [Dehydrocholic Acid],-30,7,Q4,0,1,,,
CCN1CCC[C@H]1CNC(=O)c1c(OC)ccc(Br)c1OC [Remoxipride],,,,0,,Q4,1,"inhibition at 10 µM [1, 9]: -14%; inhibition at 10 µM ([2]; 48 h): 3%"
CNC(=O)Oc1ccccc1OC(C)C [Propoxur],,,,0,,Q4,1,"inhibition at 10 µM [1, 9]: -51%; inhibition at 10 µM ([2]; 48 h, primary microglia HTS, LPS stimulation, cell size >800 μm2 as marker of activation): 8%"
CCOc1ccc2nc(S(N)(=O)=O)sc2c1 [Ethoxzolamide],29,16,Q4,1,1,,,
CC(=O)[C@H]1CC[C@H]2[C@@H]3CC[C@@H]4C[C@H](O)CC[C@]4(C)[C@H]3CC[C@]12C [Eltanolone],-6,4,Q4,0,1,,,
CCCNC(C)C(=O)Nc1ccccc1C (stereo not shown) [Prilocaine],,,,0,,Q4,0,"inhibition at 10 µM [1, 9]: -3%; inhibition at 10 µM ([2]; 48 h): 12%"
CC(C)N(CCC(C(N)=O)(c1ccccc1)c1ccccn1)C(C)C (stereo not shown) [Disopyramide],-13,1,Q4,0,1,,,
CC(=O)Nc1ccc(CC(=O)O)cc1 [Actarit],11,9,,0,,,,"Quadrant (FIG. 5b) [3, 12]: Q4; Fibrin % cell toxicity [5, 13]: 1%"
CC(C)(C)NCC(O)COc1cccc2c1CC(O)C(O)C2 (stereo not shown) [Nadolol],107,108,,3,,,,"Quadrant (FIG. 5b) [3, 12]: Q2; Fibrin % cell toxicity [5, 13]: 4%"
FCOC(C(F)(F)F)C(F)(F)F [Sevoflurane],,,,1,,Q4,1,"inhibition at 10 µM [1, 9]: -1%; inhibition at 10 µM ([2]; 48 h): 17%"
COC(=O)[C@H](Cc1ccccc1)NC(=O)[C@@H](N)CC(=O)O [Aspartame] (H-Asp-Phe-OMe),-15,7,,0,,,,"Quadrant (FIG. 5b) [3, 12]: Q4; Fibrin % cell toxicity [5, 13]: 1%"
O=c1c2ccccc2[se]n1-c1ccccc1 [Ebselen],-49,-1,Q4,0,0,,,
Cc1c(OCC(F)(F)F)ccnc1C[S@@+]([O-])c1nc2ccccc2[nH]1 [Dexlansoprazole],-23,-12,Q4,0,0,,,
"CCCc1cc(C(N)=S)ccn1 [Protionamide, Ektebin]",,,,,,Q4,1,"Fibrin % inhibition [1, 9]: −18%; LPS % inhibition [2]: 12%; LPS % cell toxicity [4]: 0%"
CCCOc1ccc(C(=O)OCCN(CC)CC)cc1N [Proparacaine],,,,0,,Q4,1,"inhibition at 10 µM [1, 9]: -6%; inhibition at 10 µM ([2]; 48 h): 13%"
CC1=NS(=O)(=O)c2cc(Cl)ccc2N1 [Diazoxide],3,24,Q4,0,0,,,
COc1ccc(C2C(=O)c3ccccc3C2=O)cc1 [Anisindione],-15,13,,0,,,,"Quadrant (FIG. 5b) [3, 12]: Q4; Fibrin % cell toxicity [5, 13]: 0%"
N[C@@H]1CON=C1O [Cycloserine],-4,19,Q4,0,0,,,
CC(=O)Nc1ccc(OC(C)=O)cc1 [Diacetamate],-25,21,Q4,0,1,,,
"C=CC(N)CCC(=O)O (racemic) [(±)-gamma-vinyl Gaba, Vigabatrin]",,,,,,,,"Fibrin % inhibition ([1]; compounds at 10 μM): 8%; LPS % inhibition [2, 6]: 12%; Quadrant (FIG. 5b) [3, 12]: Q4; LPS % cell toxicity [4]: 0%; Fibrin % cell toxicity [5, 13]: 1%"
NC[C@H]1O[C@H](O[C@H]2[C@H](O[C@@H]3O[C@H](CO)[C@@H](O)[C@H]3O)[C@@H](O)[C@H](N)C[C@@H]2N)[C@H](N)[C@@H](O)[C@@H]1O.O=S(=O)(O)O [Ribostamycin Sulfate],,,,,,Q4,0,"Fibrin % inhibition [1, 9]: −16%; LPS % inhibition [2]: 13%; LPS % cell toxicity [4]: 0%"
O=C1CC[C@@H](C(=O)O)N1 [Pidolic Acid],,,,0,,Q4,1,"inhibition at 10 µM [1, 9]: -57%; inhibition at 10 µM ([2]; 48 h): 15%"
CCOC(=S)SSC(=S)OCC [Dixanthogen],4,17,Q4,0,1,,,
CC(=O)N(O)CCCCCNC(=O)CCC(=O)N(O)CCCCCNC(=O)CCC(=O)N(O)CCCCCN [Deferoxamine],2,32,Q4,0,1,,,
CC(CCc1ccc(O)cc1)NCCc1ccc(O)c(O)c1 (stereo not shown) [Dobutamine],,,Q4,0,1,,,"Fibrin % inhibition ([1]; compounds at 10 μM, 10 µM): −29%; LPS % inhibition ([2]; primary microglia HTS, LPS stimulation, compounds at 10 μM, 10 µM): −7%"
C=CCOC(Cn1ccnc1)c1ccc(Cl)cc1Cl (stereo not shown) [Enilconazole],24,15,Q4,1,1,,,
O=C1OC(c2ccc(O)cc2)(c2ccc(O)cc2)c2ccccc21 [Phenolphthalein],,,,0,,Q4,1,"inhibition at 10 µM [1, 9]: 10%; inhibition at 10 µM ([2]; 48 h): 13%"
CC(=O)NO [Acetohydroxamic Acid],-3,12,,0,,,,"Quadrant (FIG. 5b) [3, 12]: Q4; Fibrin % cell toxicity [5, 13]: 0%"
CC(=O)c1ccc2c(c1)N(CCCN(C)C)c1ccccc1S2 [Acepromazine],9,31,,1,,,,"Quadrant (FIG. 5b) [3, 12]: Q4; Fibrin % cell toxicity [5, 13]: 1%"
